Entries after “also recorded” stand apart in the source; their conditions may differ. Non-standard residues stand in square brackets, D forms with d. Residues, ends and D or L forms follow the SMILES beside them. *: point of attachment. Decanoyl(3,6,9-trioxa) = COCCOCCOCC(=O)*; NBD = O=[N+]([O-])c1ccc(*)c2nonc12; dNle = CCCC[C@@H](N)C(=O)O; Nle = CCCC[C@H](N)C(=O)O; AEEA = NCCOCCOCC(=O)O; Ahx = NCCCCCC(=O)O

The subject of one data set is methicillin-sensitive Staphylococcus aureus. Kind of data set: Confocal labelling of MSSA with quantified fluorescence. It is filed as cell-based. Particulars: MSSA, 10 μM, fluorescence normalized to UBI-3, mean ± SEM, n ≥ 3. How it is done:
Fig. 6 Confocal Images of compounds UBI-3 to 9 with quantified fluorescence. Panels show methicillin-sensitive Staphylococcus aureus incubated with UBI-3 to 9 (all 10 μM) with quantification of bacterial fluorescence normalized to UBI-3 (bars represent mean (±SEM), n ≥ 3, ns = not significant, *** = p < 0.001, * = p < 0.05, scale bar = 10 μm).
Fig. 8 Confocal images and quantification of cyclic variants when compared to UBI-3. Panels show methicillin-sensitive Staphylococcus aureus incubated with cyclic UBI compounds (all 10 μM) with quantification of bacterial fluorescence normalized to UBI-3 (bars represent mean (±SEM), n ≥ 3, ns = not significant, ** = p < 0.01, scale bar = 10 μm).
Bacterial Culture and Labelling: Bacteria used were K. pneumoniae (ATCC BAA1706) ATCC, E. coli (ATCC 25922) ATCC, A. baumannii (J3433) Clinical Isolate, P. aeruginosa (J3284) Clinical Isolate, Methicillin Resistant S. aureus (MRSA) (ATCC25923) ATCC and Methicillin Sensitive S. aureus (MSSA) (ATCC 252) ATCC. All bacteria were grown on Lysogeny broth (LB) agar and from a single bacterial colony placed into 10ml of LB and incubated at 37°C for 16 hours in an orbital shaker.
Cultures were centrifuged at 4000rpm for 5 minutes and the pellet resuspended in 1ml phosphate buffered saline (PBS, Life Technologies). Following three further washes in PBS the cultures were reconstituted to 1 OD595 nm. Bacteria were counterstained with 5µM Syto 82 orange fluorescent nucleic acid stain (Invitrogen, CA, USA) in a shaking heat block at 37 °C for 20 minutes. For FCFM bacteria were stained with 1µM Calcein AM (Sigma, MO, USA) for 30 minutes at 37 °C. Counterstained bacteria were washed in PBS to remove excess dye. […]
Confocal Analysis and Fluorescence Quantification: 8-Well Lab-Tek II Confocal Chambers (VWR, PA, USA) were coated in fibronectin (for neutrophil experiments) or poly-d-lysine (for bacteria) at 37 °C for 20 minutes, then washed in PBS prior to bacterial innoculation. For co-culture assays, neutrophils were seeded on fibronectin coated wells at 1 x 10^5 neutrophils per well for 20 minutes and non-adherent neutrophils aspirated. Bacteria were added to each chamber to a final concentration of 0.5 OD595 nm with the desired final concentration of Smartprobe. A laser-scanning confocal imaging system (LSM510; Carl Zeiss, Jena, Germany), incorporating an upright Axioskop FS2 microscope (63× objective) was used for image acquisition and processing. Exposure to 488 nm light was limited to 5% of the maximum laser power in order to minimize toxicity. ‘Green’ fluorescence (for FAM and NBD) was excited with a dedicated 488 nm line and emitted light detected with meta detector (500-530 nM).
Syto nuclear and dyes were excited with a dedicated 543 nm line, and emitted light detected with meta detector (570-610 nM). Fields of view were chosen based on the counterstain and at least three fields of view were recorded for each condition. For affinity assays, following initial imaging, the fluid was aspirated and two gentle washes with PBS were performed. The chamber was re-imaged on confocal.
Analysis was with ImageJ (version 1.46r, National Institutes of Health, USA); the Syto channel was automatically thresholded (MaxEntropy, with a set threshold 0-47) and an ROI generated from this. The […]
mean fluorescence intensity on the probe channel within this ROI was quantified. Data presented represents the mean of three experiments, from each of which three separate fields of view were assessed. All experiments were performed at least three times unless otherwise stated and results expressed as mean ± SEM. Data was analysed by unpaired t-test and significance was determined as p<0.05 (GraphPad Prism version 5.01 for Windows, GraphPad Software, San Diego California USA).
Ex vivo Human Lung and FCFM Procedure: Human lung samples were obtained from patients undergoing surgical resection for lung carcinoma. All images were obtained on sections of normal lung […]
Take `CCCC[C@H](NC(=O)[C@H](CCCNC(=N)N)NC(=O)[C@H](CCCNC(=N)N)NC(=O)[C@H](CCCCN)NC(=O)[C@H](C)NC(=O)[C@H](CCCNC(=N)N)NC(=O)CNC(=O)[C@@H](NC(=O)[C@H](CCCCNc1ccc([N+](=O)[O-])c2nonc12)NC(=O)COCCOCCOC)[C@@H](C)O)C(=O)N[C@@H](CCC(N)=O)C(=O)N[C@@H](Cc1ccc(O)cc1)C(=O)N[C@@H](CC(N)=O)C(=O)N[C@@H](CCCNC(=N)N)C(=O)N[C@@H](CCCNC(=N)N)C(=O)NCCOCCOCC(=O)NCCOCCOCC(N)=O` [UBI-6] ({Decanoyl(3,6,9-trioxa)}-K(NBD)TGRAKRR[Nle]QYNRR[AEEA][AEEA]-NH2): the “bacterial labelling (fluorescence compared with UBI-3)” value is recorded as “loss of labelling on bacteria; also recorded: loss of labelling efficacy”. For `CCCC[C@H](NC(=O)[C@H](CCCNC(=N)N)NC(=O)[C@H](CCCNC(=N)N)NC(=O)[C@H](CCCCN)NC(=O)[C@H](C)NC(=O)[C@H](CCCNC(=N)N)NC(=O)CNC(=O)[C@@H](NC(=O)CCCCCNc1ccc([N+](=O)[O-])c2nonc12)[C@@H](C)O)C(=O)N[C@@H](CCC(N)=O)C(=O)N[C@@H](Cc1ccc(O)cc1)C(=O)N[C@@H](CC(N)=O)C(=O)N[C@@H](CCCNC(=N)N)C(=O)N[C@@H](CCCNC(=N)N)C(=O)NCCOCCOCC(=O)NCCOCCOCC(N)=O` [UBI-7] ({NBD-Ahx}-TGRAKRR[Nle]QYNRR[AEEA][AEEA]-NH2), the “bacterial labelling (fluorescence compared with UBI-3)” value was “loss of bacterial labelling; also recorded: loss of labelling efficacy”. Consider `CCCC[C@@H](NC(=O)[C@@H](CCCNC(=N)N)NC(=O)[C@@H](CCCNC(=N)N)NC(=O)[C@@H](CCCCN)NC(=O)[C@@H](C)NC(=O)[C@@H](CCCNC(=N)N)NC(=O)CNC(=O)[C@H](NC(=O)COCCOCCNc1ccc([N+](=O)[O-])c2nonc12)[C@H](C)O)C(=O)N[C@H](CCC(N)=O)C(=O)N[C@H](Cc1ccc(O)cc1)C(=O)N[C@H](CC(N)=O)C(=O)N[C@H](CCCNC(=N)N)C(=O)N[C@H](CCCNC(=N)N)C(=O)O` [UBI-8] ({NBD-AEEA}-[dT]G[dR][dA][dK][dR][dR][dNle][dQ][dY][dN][dR][dR]-OH), for which the “bacterial labelling (fluorescence compared with UBI-3)” value is listed as “loss of labelling on bacteria; also recorded: loss of labelling efficacy”. Consider `CCCC[C@@H](NC(=O)[C@@H](CCC(N)=O)NC(=O)[C@@H](Cc1ccc(O)cc1)NC(=O)[C@@H](CC(N)=O)NC(=O)[C@@H](CCCNC(=N)N)NC(=O)[C@@H](CCCNC(=N)N)NC(=O)COCCOCCOC)C(=O)N[C@H](CCCNC(=N)N)C(=O)N[C@H](CCCNC(=N)N)C(=O)N[C@H](CCCCN)C(=O)N[C@H](C)C(=O)N[C@H](CCCNC(=N)N)C(=O)NCC(=O)N[C@@H](C(=O)N[C@@H](CCCCNc1ccc([N+](=O)[O-])c2nonc12)C(=O)O)[C@H](C)O` [UBI-9] ({Decanoyl(3,6,9-trioxa)}-[dR][dR][dN][dY][dQ][dNle][dR][dR][dK][dA][dR]G[dT]K(NBD)-OH), for which the “bacterial labelling (fluorescence compared with UBI-3)” value is listed as “loss of labelling on bacteria; also recorded: loss of labelling efficacy”.

System in another data set: not listed separately
Kind of data set: broncho-alveolar lavage fluid (BALF) retrieved from ventilated ICU patients with Acute Respiratory Distress Syndrome (ARDS); pooled samples from three patients. Particulars: human, up to 30min.
Regarding “MeO-PEG- D- Arg- D- Arg- D- Asn- D- Tyr- D- Gln- D- Nle- D- Arg- D- Arg- D- Lys- D- Ala- D- Arg-Gly- D- Thr-Lys(NBD)-OH”, the not cleaved entry is listed as “Stable in ARDS BALF”.

Take “NBD-Ahx-Thr-Gly-Arg-Ala-Lys-Arg-Arg-Nle-Gln-Tyr-Asn-Arg-Arg-NH2”: the cleaved bond entry is given as “ArgP8-ArgP7, major, <5 min; also recorded: ArgP2-ArgP1, major, <5 min”.

Turning to “NBD-Ahx-Thr-Gly-Arg-Ala-Lys-Arg-MeArg-Nle-Gln-Tyr-Asn-Arg-Arg-D-Phe-D-Val-NH2”, the not cleaved result is “Stable in ARDS BALF”. For “NBD-Ahx-Thr-Gly-Arg-Ala-Lys-MeArg-MeArg-Nle-Gln-Tyr-Asn-MeArg-MeArg-NH2”, the not cleaved result is on record as “Stable in ARDS BALF”. Consider “NBD-Ahx-cyclo[Lys-Thr-Gly-Arg-Ala-Lys-Arg-Arg-Nle-Gln-Tyr-Asn-Arg-Arg-Gly]”, for which the cleaved bond entry was “Thr-Gly, first_seen, 10min; also recorded: Arg-Arg, major, 20min”. With “NBD-Ahx-cyclo[Lys-Thr-Gly-Arg-Ala-Lys-Arg-Arg-Nle-Gln-Tyr-Asn-Arg-MeArg-Gly]”, the not cleaved result is “stability in BALF for over 30 minutes”. Take “NBD-PEG-D-Thr-Gly-D-Arg-D-Ala-D-Lys-D-Arg-D-Arg-D-Nle-D-Gln-D-Tyr-D-Asn-D-Arg-D-Arg-OH”: the not cleaved entry is given as “Stable in ARDS BALF”.

System in a further data set: not listed separately
Kind of data set: Stability in ARDS bronchoalveolar lavage fluid (MALDI-TOF MS). It is filed as in vitro ADME, human. Conditions: human ARDS BALF pooled from three patients vs PBS, 5 and 30 min, MALDI-TOF MS. The source says: To determine the ability of UBI-3 to image bacteria in the continued presence of a complex inflammatory environment, bacteria were labelled with UBI-3 in the presence of broncho-alveolar lavage fluid (BALF) retrieved from ventilated ICU patients with Acute Respiratory Distress Syndrome (ARDS). ARDS BALF was utilised as ARDS is a severe life threatening pulmonary syndrome, characterized by a massive proteolytic and oxidative inflammatory environment within the distal alveolar region.[14] […] To design out susceptible amino acid cleavage points, a number of modifications were made (Table 1) and the functional consequences assessed. The chemical approaches pursued to improve resistance to degradation included replacing amino acids at the cleavage positions with non-natural amino acids such as N-methyl or D-amino acids,[15] and cyclisation of the peptide,[16] which could have the added benefit of enhancing affinity towards bacterial membrane.[17]
The Arg–Arg bonds were identified as the prominent position of degradation (Fig. 5) and Compounds UBI-4–9 (Table 1) were synthesised with a variety of substitutions around the degradation sites. The susceptible peptide bonds at P1–P2 and P7–P8 were blocked using N-MeArg (UBI-4), and to further mask these positions, a long polyethylene glycol (PEG) chain and/or a D-amino acid were positioned at the carboxylic and/or amino termini (UBI-5–7).
We hypothesized that cyclisation of the sequence would allow for greater stability and also improve bacterial affinity and therefore cyclic variants of UBI-3 were synthesized (UBI-10 and UBI-11), which were both found to be stable in BALF for 5 minutes (Fig. 7 and S3 ESI ^†). […] However, these studies also highlighted the degradation of UBI-10 at 10 minutes, guiding the temporal constraints of Smartprobe delivery and optical imaging.
Fig. 7 UBI-10 remains stable in ARDS BALF at 5 minutes. (A) Structure of UBI-10 with breakdown products in ARDS BALF. […] TEXT PRINTED IN THE PICTURE: UBI-10: Molecular Weight: 2118.41 | Fragment A: Molecular Weight: 1923.18 | Fragment B: Molecular Weight: 1980.23 DOUBTS OF THE COPYIST ABOUT THIS PICTURE: UBI-10, Molecular Weight: very small print, 2118.41 is the best reading; the digits 8 and 4 are uncertain / Fragment A, Molecular Weight: very small print, 1923.18 is the best reading; the digits 9, 3 and 8 are uncertain / Fragment B, Molecular Weight: very small print, 1980.23 is the best reading; the digits 9, 8 and 3 are uncertain […]
Supplementary Information
A Labelled-Ubiquicidin Antimicrobial Peptide for Immediate In Situ Optical Detection of Live Bacteria in Human Alveolar Lung Tissue
Ahsan R Akram, Nicolaos Avlonitis, Annamaria Lilienkampf, Ana M Perez-Lopez, Neil McDonald, Sunay V Chankeshwara, Emma Scholefield, Christopher Haslett, Mark Bradley & Kevin Dhaliwal.
Figure S1: MALDI-TOF MS spectra for a stability study of UBI-3 in PBS and in ARDS BALF […]
Figure S2. MALDI-TOF MS spectra of modified analogues UBI-4 to UBI-9 in Phosphate Buffered Saline and ARDS BALF over a period of 5 and 30min.
Figure S3: MALDI-TOF MS spectra of UBI-11 in Phosphate Buffered Saline vs ARDS BALF […]
Figure S4. Quantified fluorescence of confocal microscopy images of the compounds UBI-3, UBI-5 and UBI-10 on three bacteria and fluorescence retention following a PBS wash.
Figure S5: Fibered confocal fluorescence microscopy imaging of human lung and Calcein AM stained Methicillin sensitive S. aureus.
Experimental Details including Tables M1-4, Figure M1 and HPLC Chromatograms.
(also on this page, place not known: Electronic Supplementary Material (ESI) for Chemical Science. This journal is © The Royal Society of Chemistry 2015)
(1 picture or pasted object on this page, not shown here) […]
BALF Retrieval: Bronchoalveolar lavage was performed in the Intensive Care Unit (ICU), as previously described. S5 Pooled samples from three patients were used for stability assays. […]
Exposure to 488 nm light was limited to 5% […]
For `CCCC[C@H](NC(=O)[C@H](CCCNC(=N)N)NC(=O)[C@H](CCCNC(=N)N)NC(=O)[C@H](CCCCN)NC(=O)[C@H](C)NC(=O)[C@H](CCCNC(=N)N)NC(=O)CNC(=O)[C@@H](NC(=O)CCCCCNc1ccc([N+](=O)[O-])c2nonc12)[C@@H](C)O)C(=O)N[C@@H](CCC(N)=O)C(=O)N[C@@H](Cc1ccc(O)cc1)C(=O)N[C@@H](CC(N)=O)C(=O)N[C@@H](CCCNC(=N)N)C(=O)N[C@@H](CCCNC(=N)N)C(=O)NCCOCCOCC(=O)NCCOCCOCC(N)=O` [UBI-7] ({NBD-Ahx}-TGRAKRR[Nle]QYNRR[AEEA][AEEA]-NH2), the “stability in ARDS BALF” value is listed as “did not improve stability in ARDS BALF; also recorded: Unstable in ARDS BALF at 30 minutes”.

Values taken from publication PMC5947527 (Chemical Science, 2015).
